The values that follow come from paper PMC9180926, “Discovery of Novel 3-Hydroxyquinazoline-2,4(1H,3H)-Dione Derivatives: A Series of Metal Ion Chelators with Potent Anti-HCV Activities” (International Journal of Molecular Sciences, 2022).

Read-outs that look alike come from different tables or passages of the source.

Data set [1] concerns HCV 1b replicon cells (Huh-7.5.1). Kind of data set: Anti-HCV assay, HCV 1b replicon cells with luciferase reporter. The format is cell-based, hepatitis C virus (HCV) subtype 1b. As to conditions: for inhibition at 10 µM / inhibition at 25 µM: Huh-7.5.1, 72 h; for inhibition at 10 µM: read-out: HCV Inhibition 10 μM; for inhibition at 25 µM: read-out: HCV Inhibition 25 μM; for EC50: mean ± SD; for HCV inhibition at the tested concentrations: at the tested concentrations (25 μM and 10 μM). How it is done: (§1) The HCV replicons were validated as convenient and effective models for testing the anti-HCV activity. Since HCV subtype 1b is one of the major subtypes worldwide, especially in China, the replicon model from the Huh-7.5.1 cell line integrating HCV 1b genome encoding the nonstructural proteins was chosen to evaluate the anti-HCV activities of 3-hydroxyquinazoline-2,4(1H,3H)-diones. The inhibitory rates of the compounds on HCV replicon cells were determined at concentrations of 25 μM and 10 μM, respectively. The broad-spectrum antiviral drug ribavirin (RBV) and the NS5B nucleoside inhibitor 2′-C-methyladenosine (2CMA) were selected as positive controls. The cytotoxicity of these compounds on replicon cells was determined using the cell counting kit-8 (CCK-8) assay.
HCV 1b replicon cells (Huh-7.5.1) containing luciferase reporter gene were kindly provided by Prof. Zhenghong Yuan (Key Laboratory of Medical Molecular Virology, Fudan University, Shanghai, China). The replicon cells were plated at 1.5 × 10^4 cells per well in a 48-well plate (Corning Inc., New York, NY, USA) at 5% CO2/37 °C. The culture medium was Dulbecco’s Modified Eagle Medium (DMEM, pH 7.3, Shanghai XP Biomed Ltd., Shanghai, China) containing 10% fetal bovine serum (Shanghai XP Biomed Ltd., Shanghai, China), 10^5 U/L penicillin, 0.1 g/L streptomycin, and 0.5 μg/mL blasticidin. After 12 h, the culture medium in each well was replaced with 300 μL of pre-prepared fresh culture medium containing test compound (dissolved in DMSO with specific concentration) or blank DMSO. The final concentration of DMSO in the culture medium in the plate was 0.1%. Each group was tested at least twice in parallel. Ribavirin and 2CMA were used as the positive controls. After incubating the drug-added plate at 5% CO2/37 °C for 72 h, the medium was removed, and each well was washed with 300 μL of phosphate buffer solution (PBS, Shanghai XP Biomed Ltd., Shanghai, China). The cells in each well were then lysed with 50 μL of 1× lysis buffer (E2820, Promega, Madison, WI, USA). Subsequently, 50 μL of 1× luciferase assay substrate (E2820, Promega, Madison, WI, USA) was mixed with 20 μL of the harvested cell lysates.
The inhibitory rates under at least six different concentration gradients were imported into GraphPad Prism 7.0 software to calculate the anti-HCV EC50 values of the compounds using the nonlinear fitting method.
(In general: In antiviral work, replicon cells carry a viral genome segment that copies itself.)

Data set [2] is described as follows: Cytotoxicity assay (CCK-8) on replicon cells. The data set is classed as cell-based. As to conditions: human, HCV 1b replicon cells (Huh-7.5.1); 50% cytotoxic concentration; CCK-8, HCV 1b replicon cells, 72 h. As for the experimental part: as §1
The HCV 1b replicon cells were incubated and treated with test compounds or blank DMSO in a 48-well plate using the same materials and methods as described in the experimental procedure of anti-HCV assay. The final concentration of DMSO in each well was 0.1%. After 72 h of drug treatment, the culture medium in the well plate was removed, and cells in each well were washed with 300 μL of PBS. A total of 300 μL of pre-prepared fresh culture medium containing 30 μL CCK-8 reagent (Donjindo, Kumamoto, Japan) was added to each well, and the plate was incubated at 5% CO2/37 °C for 2 h. The OD (optical density) value of each well at 450 nm was measured using a multi-function microplate reader (SpectraMax M5, Molecular Devices, San Jose, CA, USA). The death ratio of each well was calculated using the following equation, in which ODcompound or ODblank represents the measured OD value of the compound group or the blank control (DMSO), respectively:death ratio = (1−ODcompound/ODblank) × 100%(2)
The cell death data under at least six different concentration gradients were imported into GraphPad Prism 7.0.0 software (GraphPad Software Inc., San Diego, CA, USA), and the CC50 (50% cytotoxic concentration) values were calculated using the nonlinear fitting method.

[3] abbreviates: Hepatitis C virus, inhibitory rate at 10 μM, HCV 1b replicon cells, 72 h.
The mark [4] stands for this setting: Hepatitis C virus, inhibitory rate at 25 μM, HCV 1b replicon cells, 72 h.
Setting [5] is: Hepatitis C virus, Huh-7.5.1, 50% effective concentration, HCV 1b replicon cells.

On to `COc1ccc(NC(=O)Cn2c(=O)n(O)c(=O)c3ccccc32)cc1` [10o, 2-(3-Hydroxy-2,4-dioxo-3,4-dihydroquinazolin-1(2H)-yl)-N-(4-methoxyphenyl)acetamide], for which, in data set [1] (setting [3]), the inhibition (commonly the drop in the measured response relative to a control, in per cent) at 10 µM was 16.9%. The inhibition at 25 µM in data set [1] (setting [4]) is 67.5%.
For `Cc1ccc(F)cc1-c1ccc2c(=O)n(O)c(=O)[nH]c2c1` [21p, 7-(5-Fluoro-2-methylphenyl)-3-hydroxyquinazoline-2,4(1H,3H)-dione], the midpoint of cytotoxicity in data set [2], the CC50 at 72 h, lay at 13.4 ± 5.2 µM. Also, it took 9.9 ± 0.6 µM to reach a half-maximal effect in data set [1] (setting [5]) (EC50). For the same compound, the inhibition at 10 µM in data set [1] (setting [3]) came out at 44.9%.
For the compound `CCCCNC(=O)Cn1c(=O)n(O)c(=O)c2ccccc21` [10i, N-Butyl-2-(3-hydroxy-2,4-dioxo-3,4-dihydroquinazolin-1(2H)-yl)acetamide], in data set [1] (setting [3]), the inhibition at 10 µM came to 26.5%. Further, in data set [1] (setting [4]), the inhibition at 25 µM was found to be 22.9%. For the same compound, the “HCV inhibition at the tested concentrations” value in data set [1] was “less than 30%”.
Consider `N#Cc1ccc(NC(=O)Cn2c(=O)n(O)c(=O)c3ccccc32)cc1` [10n, N-(4-Cyanophenyl)-2-(3-hydroxy-2,4-dioxo-3,4-dihydroquinazolin-1(2H)-yl)acetamide], for which half-maximal cytotoxicity in data set [2] (CC50 at 72 h) was put at 10.6 ± 0.3 µM. Further, the concentration giving a half-maximal response (EC50) (as a rule, the concentration that produces a half-maximal response) in data set [1] (50% effective concentration, HCV 1b replicon cells) was 6.4 ± 0.3 µM; in data set [1] (setting [5]), less than 10 µM. Moreover, the inhibition at 10 µM in data set [1] (setting [3]) is 58%. Moreover, the inhibition at 25 µM in data set [1] (setting [4]) was 66%.
On to `O=c1[nH]c2cc(-c3ccc(F)cc3F)ccc2c(=O)n1O` [21n, 7-(2,4-Difluorophenyl)-3-hydroxyquinazoline-2,4(1H,3H)-dione], for which the CC50 – broadly, the concentration giving 50% cytotoxicity – at 72 h in data set [2] amounted to 11.2 ± 1.4 µM. The EC50 in data set [1] (setting [5]) turned out to be 3.9 ± 0.3 µM. Further, the inhibition at 10 µM in data set [1] (setting [3]) was found to be 69.7%.
With `O=C(Cn1c(=O)n(O)c(=O)c2ccccc21)NCc1ccccc1` [10h, N-Benzyl-2-(3-hydroxy-2,4-dioxo-3,4-dihydroquinazolin-1(2H)-yl)acetamide], in data set [1] (setting [3]), the inhibition at 10 µM was 1.3%. In addition, the inhibition at 25 µM in data set [1] (setting [4]) is not above 50%.
Turning to `Cn1c(=O)n(O)c(=O)c2ccc(Cc3ccccc3)cc21` [18b, 7-Benzyl-3-hydroxy-1-methylquinazoline-2,4(1H,3H)-dione], the inhibition at 10 µM in data set [1] (setting [3]) stood at 23%.
Regarding `O=c1[nH]c2ccccc2c(=O)n1O` [10a, 3-Hydroxyquinazoline-2,4(1H,3H)-dione], in data set [1] (Hepatitis C virus), the inhibition at 10 µM was -3% and the inhibition at 25 µM was found to be 36%.
As for `O=c1c2cc(-c3ccccc3)ccc2n(Cc2ccccc2)c(=O)n1O` [23h, 1-Benzyl-3-hydroxy-6-phenylquinazoline-2,4(1H,3H)-dione], the inhibition at 10 µM in data set [1] (setting [3]) stood at 7.8%. Further, the inhibition at 25 µM in data set [1] (setting [4]) was 2%.
Consider `O=c1[nH]c2c(-c3ccc(C(F)(F)F)cc3)cccc2c(=O)n1O` [21x, 3-Hydroxy-8-(4-(trifluoromethyl)phenyl)quinazoline-2,4(1H,3H)-dione], for which the inhibition at 10 µM in data set [1] (setting [3]) came out at 16.4%. In addition, the inhibition at 25 µM in data set [1] (setting [4]) worked out at 47.5%.
On the same counts, the results for `O=C(Cn1c(=O)n(O)c(=O)c2ccccc21)NCc1cccc(F)c1` [10l, N-(3-Fluorobenzyl)-2-(3-hydroxy-2,4-dioxo-3,4-dihydroquinazolin-1(2H)-yl)acetamide] are 22.4% and 45.5%.
The like results for `O=C(Cn1c(=O)n(O)c(=O)c2ccccc21)Nc1ccccc1` [10j, 2-(3-Hydroxy-2,4-dioxo-3,4-dihydroquinazolin-1(2H)-yl)-N-phenylacetamide] were, in that order, 30.1% and 62.7%.
As to `O=c1[nH]c2cc(-c3cc(F)c(F)c(F)c3)ccc2c(=O)n1O` [21q, 3-Hydroxy-7-(3,4,5-trifluorophenyl)quinazoline-2,4(1H,3H)-dione], the inhibition at 10 µM in data set [1] (setting [3]) amounted to 26.8%. Further, the inhibition at 25 µM in data set [1] (setting [4]) was found to be 5.4%.
On the same counts, the results for `O=C(Cn1c(=O)n(O)c(=O)c2ccccc21)NCc1ccc(F)cc1` [10m, N-(4-Fluorobenzyl)-2-(3-hydroxy-2,4-dioxo-3,4-dihydroquinazolin-1(2H)-yl)acetamide] are 12.7% and 58.4%.
Regarding `O=c1c2ccccc2n(CCCc2ccccc2)c(=O)n1O` [10b, 3-Hydroxy-1-(3-phenylpropyl)quinazoline-2,4(1H,3H)-dione], the inhibition at 10 µM in data set [1] (setting [3]) worked out at 28.6%. Besides, the inhibition at 25 µM in data set [1] (setting [4]) is 40.9%.
On to `O=C(Cn1c(=O)n(O)c(=O)c2ccccc21)NCC1CC1` [10g, N-(Cyclopropylmethyl)-2-(3-hydroxy-2,4-dioxo-3,4-dihydroquinazolin-1(2H)-yl)acetamide], for which the inhibition at 10 µM in data set [1] (setting [3]) was found to be 10.6%. Also, the inhibition at 25 µM in data set [1] (setting [4]) was 15%. Further, the “HCV inhibition at the tested concentrations” value in data set [1] is recorded as “less than 30%”.
For the compound `O=C(Cn1c(=O)n(O)c(=O)c2ccccc21)NCCc1ccccc1` [10f, 2-(3-Hydroxy-2,4-dioxo-3,4-dihydroquinazolin-1(2H)-yl)-N-phenethylacetamide], the inhibition at 10 µM in data set [1] (setting [3]) came out at 13.3%. The inhibition at 25 µM in data set [1] (setting [4]) was not above 50%.
On the same counts, the results for `O=c1[nH]c2cc(Cc3ccccc3)ccc2c(=O)n1O` [18a, 7-Benzyl-3-hydroxyquinazoline-2,4(1H,3H)-dione] are 28.6% and 59.8%.
On the same counts, the results for `O=c1c2ccc(-c3ccccc3)cc2n(Cc2ccccc2)c(=O)n1O` [23i, 1-Benzyl-3-hydroxy-7-phenylquinazoline-2,4(1H,3H)-dione] are -6.5% and 4.8%.
On the same counts, the results for `COc1ccc(-c2cccc3c(=O)n(O)c(=O)[nH]c23)cc1` [21w, 3-Hydroxy-8-(4-methoxyphenyl)quinazoline-2,4(1H,3H)-dione] are 11.5% and 36.4%.
As to `O=c1[nH]c2c(-c3ccc(F)cc3)cccc2c(=O)n1O` [21v, 8-(4-Fluorophenyl)-3-hydroxyquinazoline-2,4(1H,3H)-dione], in data set [1] (setting [3]), the inhibition at 10 µM came out at 23.5%. Further, the inhibition at 25 µM in data set [1] (setting [4]) came to 44.5%.
The like results for `CCCn1c(=O)n(O)c(=O)c2cc(-c3ccccc3)ccc21` [23f, 3-Hydroxy-6-phenyl-1-propylquinazoline-2,4(1H,3H)-dione] were, in that order, 26.7% and 28%.
The like results for `O=C(Cn1c(=O)n(O)c(=O)c2ccccc21)NCc1c(Cl)cccc1Cl` [10k, N-(2,6-Dichlorobenzyl)-2-(3-hydroxy-2,4-dioxo-3,4-dihydroquinazolin-1(2H)-yl)acetamide] were, in that order, 43.7% and 54.7%.
Regarding `O=c1[nH]c2cc(-c3cc(F)cc(F)c3)ccc2c(=O)n1O` [21m, 7-(3,5-Difluorophenyl)-3-hydroxyquinazoline-2,4(1H,3H)-dione], the inhibition at 10 µM in data set [1] (setting [3]) is 48.2%.
Turning to `CCCn1c(=O)n(O)c(=O)c2ccc(-c3ccccc3)cc21` [23g, 3-Hydroxy-7-phenyl-1-propylquinazoline-2,4(1H,3H)-dione], the inhibition at 10 µM in data set [1] (setting [3]) was -2.2%. Also, the inhibition at 25 µM in data set [1] (setting [4]) came out at 67.4%.
In the case of `Cn1c(=O)n(O)c(=O)c2ccc(Cc3cc(F)cc(F)c3)cc21` [18c, 7-(3,5-Difluorobenzyl)-3-hydroxy-1-methylquinazoline-2,4(1H,3H)-dione], in data set [1] (setting [3]), the inhibition at 10 µM was 39.5%.
